US6589975B2, “Synthetic compounds for treatment of inflammation” (The Regents of the University of California, priority 1998, dated 2003)
Values joined by “and” are separate entries in the source; they are usually repeats but may differ in a detail not shown here. Identical values can stand only once. Marks after values point to notes of the source that are not given here.

Tests used:
[1] = test system: RTX-induced mouse ear edema; assay: Inhibition of resiniferatoxin (RTX)-induced inflammation (edema) of the mouse ear; format: in vivo; set-up: Mean (edema): unit not given here; settings: for % Inhibition of Edema (RTX-induced edema in mouse ears): Dose 50 μg/ear; for activity in inhibition of RTX-induced edema: in words; for % Inh. Of Edema / Mean (difference, edema) / Difference (left ear minus right ear), single animals / Mean (edema): RTX 0.1 μg/ear; for ED50 for inhibition of RTX-induced edema: topical, with RTX
Protocol: Induction of mouse ear edema can be conducted according to known methods. See Inoue, 1-f., N. Nagata, Y. Koshffiara (1993), which is herein incorporated by reference. Compounds to be tested for anti-neurogenic inflammatory activity are topically applied in acetone to the ears of mice in a solution that includes the edema-causing irritant resiniferatoxin (RTX). […] After a 30-minute incubation, the mice are sacrificed, the ears removed, and bores taken and weighed. Edema is measured by subtracting the weight of the right ear (acetone control) from the weight of the left ear (treated). Results are recorded as % decrease (inhibition) or % increase (potentiation) in edema relative to the control group edema.
Soritin B was tested for anti-neurogenic inflammatory activity by topically applying in acetone to the ears of mice in a solution that includes the edema-causing irritant resiniferatoxin (RTX) as provided above. See Inoue, 1-f., N. Nagata, Y. Koshffiara (1993), which is herein incorporated by reference. […] After a 30-minute incubation, the mice are sacrificed, the ears removed, and bores taken and weighed. Edema was measured by subtracting the weight of the right ear (acetone control) from the weight of the left ear (treated). Results were recorded as % decrease (inhibition) or % increase (potentiation) in edema relative to the control group edema.

[2] = test system: PMA-induced mouse ear edema; assay: Inhibition of PMA-induced inflammation (edema) of the mouse ear; format: in vivo; set-up: Mean (edema): unit not given here; settings: for ED50, topical inhibition of PMA-induced mouse ear edema: with PMA; for Difference (left ear minus right ear), single animals: listed as Compound I
Protocol: (§1) The test compound and a known inflammatory agent, phorbol myristate acetate (PMA), are topically applied simultaneously to the left ears of mice. Three hours and 20 minutes following application, the mice are sacrificed. Both left ears and right ears are removed and standard sized bores taken. Edema (inflammation) is measured as the difference in weight between left and right ears. See Van Arman, C. G. (1974) Clin. Pharmacol. Ther. 16:900-904, which is herein incorporated by reference.
as §1, with “Soritin B and” for “The test compound and”, “(PMA), were” for “(PMA), are”, “mice were” for “mice are”, “ears were” for “ears are”, “(inflammation) was” for “(inflammation) is”

[3] = Soritin B assay: coloration in solution; format: physicochemical; settings: dissolved in acetone
[4] = 50 μg/ear, listed as Compound I
[5] = 3.12 μg/ear, PMA 2.0 μg/ear, n = 15
[6] = 6.25 μg/ear, PMA 2.0 μg/ear, n = 15
[7] = 12.5 μg/ear, PMA 2.0 μg/ear, n = 15
[8] = 25 μg/ear, PMA 2.0 μg/ear, n = 15

c1ccc2c(Cc3c[nH]c4ccccc34)c[nH]c2c1 [HB-236, bis(3,3′indolyl)methane]
% Inhibition of Edema (RTX-induced edema in mouse ears) [1]: 59.1% | activity in inhibition of RTX-induced edema [1]: show activity

O=CC(c1c[nH]c2ccccc12)c1c[nH]c2ccccc12 [HB-237, 2,2-bis(3,3′indolyl) acetaldehyde]
% Inhibition of Edema (RTX-induced edema in mouse ears) [1]: 50.1% | activity in inhibition of RTX-induced edema [1]: show activity

C[C@]12CCC(=O)C=C1CC[C@@H]1[C@@H]2[C@@H](O)C[C@@]2(C)[C@H]1CC[C@]2(O)C(=O)CO [Hydrocortisone, hydrocortisone, reference compound]
ED50, topical inhibition of PMA-induced mouse ear edema [2]: 20 μg/ear

COc1ccc2c(c1)c(CC(=O)O)c(C)n2C(=O)c1ccc(Cl)cc1 [Indomethacin, indomethacin, reference compound]
ED50, topical inhibition of PMA-induced mouse ear edema [2]: 250 μg/ear

CC1=C(CC/C(C)=C/CCC2=CC[C@H](C3=CC(=O)O[C@H]3O)O[C@H]2O)C(C)(C)CCC1 [Manoalide, manoalide, reference compound]
ED50, topical inhibition of PMA-induced mouse ear edema [2]: 100 μg/ear

O=C(O)C(c1c[nH]c2ccccc12)c1c[nH]c2ccccc12 [Soritin A, bis-(1H-indol-3-yl)-acetic acid]
% Inh. Of Edema ([2]; 3.12 μg/ear, PMA 2 μg/ear): 52.9% | Mean (difference, edema) ([2]; 3.12 μg/ear, PMA 2 μg/ear): 6.4 mg | Difference (left ear minus right ear), single animals ([2]; 3.12 μg/ear, PMA 2 μg/ear): 4.0 mg and 8.7 mg (2×) and 4.3 mg | % Inh. Of Edema ([2]; 6.25 μg/ear, PMA 2 μg/ear): 75.1% | Mean (difference, edema) ([2]; 6.25 μg/ear, PMA 2 μg/ear): 3.4 mg | Difference (left ear minus right ear), single animals ([2]; 6.25 μg/ear, PMA 2 μg/ear): 1.2 mg and 4.5 mg and 2.4 mg and 5.5 mg | % Inh. Of Edema ([2]; 12.5 μg/ear, PMA 2 μg/ear): 77.3% | Mean (difference, edema) ([2]; 12.5 μg/ear, PMA 2 μg/ear): 3.1 mg | Difference (left ear minus right ear), single animals ([2]; 12.5 μg/ear, PMA 2 μg/ear): 4.1 mg and 1.9 mg and 1.2 mg and 5.2 mg | % Inh. Of Edema ([2]; 25 μg/ear, PMA 2 μg/ear): 84.9% | Mean (difference, edema) ([2]; 25 μg/ear, PMA 2 μg/ear): 2.1 mg | Difference (left ear minus right ear), single animals ([2]; 25 μg/ear, PMA 2 μg/ear): 1.7 mg and 3.4 mg and 0.4 mg and 2.8 mg | % Inh. Of Edema ([2]; 50 μg/ear, PMA 2 μg/ear): 87.5% | Mean (difference, edema) ([2]; 50 μg/ear, PMA 2 μg/ear): 1.7 mg | Difference (left ear minus right ear), single animals ([2]; 50 μg/ear, PMA 2 μg/ear): 1.6 mg and 2.2 mg and 1.3 mg and 1.7 mg | potency in reducing PMA-induced mouse ear edema relative to known anti-inflammatories ([2]; in words): greater potency than the known anti-inflammatories hydrocortisone, indomethacin, manoalide and topsentin | ED50, topical inhibition of PMA-induced mouse ear edema [2]: 1.3 μg/ear | % Inh. Of Edema ([1]; 3.12 μg/ear): 49.9% | Mean (difference, edema) ([1]; 3.12 μg/ear): 6.0 mg | Difference (left ear minus right ear), single animals ([1]; 3.12 μg/ear, listed as Compound I): 6.0 mg (2×) and 6.6 mg and 7.1 mg and 4.1 mg and 6.3 mg | % Inh. Of Edema ([1]; 6.25 μg/ear): 33.6% | Mean (difference, edema) ([1]; 6.25 μg/ear): 8.0 mg | Difference (left ear minus right ear), single animals ([1]; 6.25 μg/ear, listed as Compound I): 6.0 mg and 11.2 mg and 7.3 mg and 10.1 mg and 8.3 mg and 5.0 mg | % Inh. Of Edema ([1]; 12.5 μg/ear): 76.8% | Mean (difference, edema) ([1]; 12.5 μg/ear): 2.8 mg | Difference (left ear minus right ear), single animals ([1]; 12.5 μg/ear, listed as Compound I): 3.8 mg and 3.6 mg and 3.1 mg and 1.1 mg and 1.7 mg and 3.4 mg | % Inh. Of Edema ([1]; 25 μg/ear): 87.9% | Mean (difference, edema) ([1]; 25 μg/ear): 1.5 mg | Difference (left ear minus right ear), single animals ([1]; 25 μg/ear, listed as Compound I): 4.1 mg and 0.2 mg and 2.1 mg and 0.6 mg and 0.3 mg | Mean (difference, edema) ([1]; 50 μg/ear): 0.3 mg | % Inh. Of Edema [1, 4]: 97.7% | Difference (left ear minus right ear), single animals [1, 4]: 0.1 mg and −0.2 mg (2×) and 1.5 mg | % Inh. Of Edema ([1]; 50 μg/ear, listed as Soritin A (I)): approximately 97.7% | % Inhibition of Edema (RTX-induced edema in mouse ears) [1]: 97.7% | ED50 for inhibition of RTX-induced edema [1]: 5.1 μg/ear

COC(=O)C(c1c[nH]c2ccccc12)c1c[nH]c2ccccc12 [Soritin B, bis-(1H-indol-3-yl)-acetic acid methyl ester]
% Inh. Of Edema [2, 5]: 14.6% | Mean (edema) [2, 5]: 10.0** | % Inh. Of Edema [2, 6]: 17.1% | Mean (edema) [2, 6]: 9.7** | % Inh. Of Edema [2, 7]: 27.1% | Mean (edema) [2, 7]: 8.6* | % Inh. Of Edema [2, 8]: 50.0% | Mean (edema) [2, 8]: 5.9* | Mean (edema) ([2]; 50 μg/ear, PMA 2.0 μg/ear, n = 15): 3.4* | ED50, topical inhibition of PMA-induced mouse ear edema [2]: 24.2 μg/ear | % Inh. Of Edema ([1]; 3.12 μg/ear, n = 15): 7.7% | Mean (edema) ([1]; 3.12 μg/ear, n = 15): 9.1 | % Inh. Of Edema ([1]; 6.25 μg/ear, n = 15): 34.3% | Mean (edema) ([1]; 6.25 μg/ear, n = 15): 6.5* | % Inh. Of Edema ([1]; 12.5 μg/ear, n = 15): 61.0% | Mean (edema) ([1]; 12.5 μg/ear, n = 15): 3.2* | % Inh. Of Edema ([1]; 25 μg/ear, n = 14): 79.2% | Mean (edema) ([1]; 25 μg/ear, n = 14): 1.7* | Mean (edema) ([1]; 50 μg/ear, n = 15): 1.0* | ED50 for inhibition of RTX-induced edema [1]: 10.9 μg/ear | color in solution [3]: light amber color

O=C(c1nc(-c2c[nH]c3ccccc23)c[nH]1)c1c[nH]c2cc(O)ccc12 [Topsentin, topsentin, reference compound]
ED50, topical inhibition of PMA-induced mouse ear edema [2]: 15 μg/ear
